From patent US20080026996A1, “Selective Vpac2 Receptor Reptide Agonists” (ELI LILLY AND COMPANY, priority 2004, published 2008)
pEC50, pIC50: −log10 of the molar value. Where two headings read alike, the source gives them in different places. Where no end group is shown, it is not given here. [ ]: non-standard residue; d: D form. The star is where a group is joined. hArg = N=C(N)NCCCC[C@H](N)C(=O)O; Hexanoyl = CCCCCC(=O)*

Key:
human VPAC1 [1] = biological target: T1, human VPAC1 (Homo sapiens, UniProt P32241); experiment: DiscoveRx cAMP in vitro potency, CHO-PO cells transiently transfected with human VPAC1 receptor; type: cell-based; set-up: expressed in transfected cells; host or cells: CHO-PO, transient (Lipofectamine)
T1 sequence (P32241 31-457): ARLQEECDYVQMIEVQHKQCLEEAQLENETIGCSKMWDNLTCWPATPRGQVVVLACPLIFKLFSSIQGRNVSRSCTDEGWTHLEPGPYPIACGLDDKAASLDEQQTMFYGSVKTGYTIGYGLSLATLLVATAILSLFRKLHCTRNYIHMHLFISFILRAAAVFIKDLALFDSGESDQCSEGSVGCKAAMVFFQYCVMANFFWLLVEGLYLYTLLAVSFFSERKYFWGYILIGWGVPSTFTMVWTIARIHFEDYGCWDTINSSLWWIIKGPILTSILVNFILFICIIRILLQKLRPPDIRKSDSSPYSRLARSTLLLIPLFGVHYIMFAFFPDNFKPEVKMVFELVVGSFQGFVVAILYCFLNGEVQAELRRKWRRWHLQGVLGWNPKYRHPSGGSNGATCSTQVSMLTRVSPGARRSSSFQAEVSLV
Procedure: (§1) Also, the cells are washed twice. The cells are incubated in assay buffer plus IBMX for 15 minutes at room temperature. […] The stimuli are present for 30 minutes. Then, the assay buffer is gently removed. […] At day 3, the assay described above for the VPAC2 receptor cell line is performed.

human VPAC1 [2] = biological target: T1, human VPAC1; experiment: Filter binding assay, membranes of cells transiently transfected with human VPAC1, 125I-labeled VIP tracer (Table 2); set-up: expressed in transfected cells; conditions: read-out: Human VPAC1 Receptor Binding
How it was run: (§2)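 Scintillation counting of filter-retained radioligand gave the read-out. Compounds competed with the labelled tracer (about 40000 cpm) for 2.5 μg membranes during 1 hour of shaking in HEPES pH 7.4 buffer containing 0.5% BSA.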

human VPAC2 [3] = biological target: T2, human VPAC2 (Homo sapiens, UniProt P41587); experiment: Filter binding assay, membranes of stable VPAC2 cell line, 125I-labeled VIP tracer (Table 2); conditions: read-out: Human VPAC2 Receptor Binding
T2 construct: expressed in transfected cells
T2 sequence (P41587 24-438): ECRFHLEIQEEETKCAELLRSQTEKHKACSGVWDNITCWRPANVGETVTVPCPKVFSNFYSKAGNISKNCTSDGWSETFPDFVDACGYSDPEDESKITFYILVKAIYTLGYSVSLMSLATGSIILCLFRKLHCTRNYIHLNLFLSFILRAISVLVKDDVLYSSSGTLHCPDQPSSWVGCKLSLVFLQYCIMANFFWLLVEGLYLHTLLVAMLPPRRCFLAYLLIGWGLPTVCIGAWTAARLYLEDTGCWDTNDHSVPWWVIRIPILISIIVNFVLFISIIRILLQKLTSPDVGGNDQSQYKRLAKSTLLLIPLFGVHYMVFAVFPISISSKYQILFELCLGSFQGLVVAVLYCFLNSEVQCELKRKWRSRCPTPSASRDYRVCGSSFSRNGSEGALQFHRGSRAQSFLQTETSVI
How it was run: as §2

DPP-IV = biological target: T3, DPP-IV (Sus scrofa, UniProt P22411); experiment: DPP-IV HPLC assay: in vitro incubation with purified dipeptidyl-peptidase IV; type: in vitro ADME, Porcine
T3 construct: purchased Sigma
Procedure: Part 1: Formulation of Selective VPAC2 Receptor Peptide Agonists: […]
Approximately 2 mg of lyophilized peptide is weighed and dissolved in approximately 1.6 mL de-ionized water. […] After incubation at room temperature for 30 minutes, 1/10th of the original volume 10×PBS is added. The pH is adjusted to between pH 7.2 and 7.6. The peptide solution is filtered through a 0.22 μm Millex-GV syringe filter (Millipore, Bedford Mass., USA). The peptide concentration is determined through absorption at 280 nm. The peptide concentration is then adjusted to 100 μM. The peptides are frozen at −20° C. for further use.
Part 2: In Vitro Incubation of Selective VPAC2 Receptor Peptide Agonists with Purified Dipeptidyl-Peptidase IV (DPP-IV):
The stability of selective VPAC2 receptor peptide agonists against proteolysis by DPP-IV is determined using 100 μL of a 100 μM peptide solution in 1×PBS. A 10 μL solution is removed and quenched with 40 μL of 0.1% trifluoroacetic acid (TFA)/20% acetonitrile (ACN). This solution (20 μL) is analyzed by reversed-phase HPLC. The reversed-phase analysis consists of a Zorbax 300SB-C8 column (3.5 micron, 4.6×50 mm, Alltech Associates, Inc., Deerfield Ill., USA) running a 15-40% B gradient over 15 minutes at 60° C. where A-buffer is 0.1% (v/v) TFA in water and B-buffer is 0.085% (v/v) TFA in ACN. The peak area is integrated. This peak area serves as an internal control as 100% intact peptide.
A 10 μL aliquot of a 1.12 mU/μL solution of DPP-IV (Sigma, St. Louis, La., USA) is added to 90 μL of a 100 μM solution of peptide, resulting in a substrate concentration of 90 μM peptide. The reaction mixture is then stored at 37° C. At various time-points, 10 μL of solution is removed, quenched with 40 μL 0.1% TFA/20% ACN, and analyzed by reversed-phase HPLC as described above. The remaining full length peptide concentration (nM) at each timepoint, except time=0, is calculated using following formula: [formula]
For the time=0 timepoint, the concentration (nM) is calculated using the following formula: [formula]

human PAC1 = biological target: T4, human PAC1 (Homo sapiens, UniProt P41586); experiment: DiscoveRx cAMP in vitro potency, CHO-PO cells transiently transfected with human PAC1 receptor; type: cell-based; set-up: expressed in transfected cells; host or cells: CHO-PO, transient (Lipofectamine)
T4 sequence (P41586 21-468): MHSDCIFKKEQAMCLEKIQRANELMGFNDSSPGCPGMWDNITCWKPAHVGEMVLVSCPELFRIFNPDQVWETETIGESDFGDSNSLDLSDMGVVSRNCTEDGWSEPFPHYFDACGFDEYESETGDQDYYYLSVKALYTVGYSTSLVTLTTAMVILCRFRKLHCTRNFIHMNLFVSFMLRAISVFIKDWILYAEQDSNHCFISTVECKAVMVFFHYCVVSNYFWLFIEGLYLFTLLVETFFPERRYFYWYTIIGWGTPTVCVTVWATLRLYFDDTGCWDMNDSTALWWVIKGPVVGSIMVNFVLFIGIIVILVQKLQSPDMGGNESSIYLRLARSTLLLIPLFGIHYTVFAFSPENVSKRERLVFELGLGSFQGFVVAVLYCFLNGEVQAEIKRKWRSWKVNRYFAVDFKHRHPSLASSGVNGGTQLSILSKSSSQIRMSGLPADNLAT
Procedure: as §1

human VPAC2 [4] = biological target: T2, human VPAC2; experiment: DiscoveRx cAMP in vitro potency, CHO-S cell line stably expressing human VPAC2 receptor; type: cell-based; conditions: cAMP generation; mean of two independent runs
Procedure: as §1

[5] = cAMP generation, mean of two independent runs, read-out: Human VPAC1 Receptor: DiscoveRx EC50
[6] = cAMP generation, mean of two independent runs, read-out: Human PAC1 Receptor: DiscoveRx EC50

T3 sequence (P22411 whole entry): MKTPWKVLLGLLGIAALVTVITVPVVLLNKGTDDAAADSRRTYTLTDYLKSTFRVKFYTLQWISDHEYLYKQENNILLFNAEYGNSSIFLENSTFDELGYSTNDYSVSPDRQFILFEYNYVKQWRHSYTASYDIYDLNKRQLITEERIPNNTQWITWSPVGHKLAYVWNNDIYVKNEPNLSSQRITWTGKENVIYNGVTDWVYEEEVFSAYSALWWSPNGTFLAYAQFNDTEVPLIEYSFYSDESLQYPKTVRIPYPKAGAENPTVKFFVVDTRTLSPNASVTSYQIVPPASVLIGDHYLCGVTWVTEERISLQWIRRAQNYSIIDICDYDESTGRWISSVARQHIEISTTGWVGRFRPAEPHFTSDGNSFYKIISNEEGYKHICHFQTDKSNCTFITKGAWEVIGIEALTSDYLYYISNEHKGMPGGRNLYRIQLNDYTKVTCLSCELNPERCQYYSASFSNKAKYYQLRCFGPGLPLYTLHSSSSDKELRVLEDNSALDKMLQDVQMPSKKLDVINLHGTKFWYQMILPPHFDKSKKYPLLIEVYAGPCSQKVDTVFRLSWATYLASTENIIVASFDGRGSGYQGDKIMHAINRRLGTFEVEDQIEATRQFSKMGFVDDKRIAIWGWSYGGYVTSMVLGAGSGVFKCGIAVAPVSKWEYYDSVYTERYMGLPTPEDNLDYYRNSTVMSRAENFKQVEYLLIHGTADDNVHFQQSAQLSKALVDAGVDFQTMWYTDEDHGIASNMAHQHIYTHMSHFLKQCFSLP

“HSDAVFTDNYTRLRKQVAAKKYLQSIKNKRF [Agonist P34]” showed a pEC50 (human VPAC1 [1]; [5]) of 9.10, a pIC50 (human VPAC1 [2]) of 7.10 and a pIC50 (human VPAC2 [3]) of 9.04.

With “Hexanoyl-HSDAVFTDNYTRLLAKLALQKYLQSIKNKRYGGPSSGAPPPS [VPAC2-P119]” the “Concentration (nM) of Remaining Main Peak by RP-HPLC after Incubation of Peptide with Purified Porcine DPP-IV” value (DPP-IV; Time = 0 hours at 37° C.) was 9.0 nM, the “Concentration (nM) of Remaining Main Peak by RP-HPLC after Incubation of Peptide with Purified Porcine DPP-IV” value (DPP-IV; Time = 2 hours at 37° C.) was 8.0 nM and the “Concentration (nM) of Remaining Main Peak by RP-HPLC after Incubation of Peptide with Purified Porcine DPP-IV” value (DPP-IV; Time = 6 hours at 37° C.) was 6.6 nM. The “Concentration (nM) of Remaining Main Peak by RP-HPLC after Incubation of Peptide with Purified Porcine DPP-IV” value (DPP-IV; Time = 24 hours at 37° C.) was 4.2 nM.

Work on “H-HSDAVFTDNYTRLRKQVAARKYLQSIKNKRYGGPSSGAPPPS [Agonist P20]” yielded a pIC50 (human VPAC1 [2]) of 7.01, a pIC50 (human VPAC2 [3]) of 8.60 and a pEC50 (human PAC1; [6]) of under 7.60. For the same substance, the pEC50 (human VPAC2 [4]) was 8.67.

In the case of “H-HSDLVFTDNYTRLRKQVAAKKYLQSIKNKRYGGPSSGAPPPS [Agonist P55]”, the pEC50 (human VPAC1 [1]; [5]) was 6.87 and the pEC50 (human PAC1; [6]) was under 6.00.

“HSDVVFTDNYTRLRKQVAAKKYLQSIKNKRYGGPSSGAPPPS [Agonist P53]” gave a pEC50 (human VPAC1 [1]) of 6.93 and a pEC50 (human PAC1) of under 6.00.

“HSDAVFTDNYTRLRKQVAAKKYLQSIKNGRPSSGAPPPS [Agonist P92]” showed a pIC50 (human VPAC1 [2]) of 7.13, a pIC50 (human VPAC2 [3]) of 9.07 and a pEC50 (human VPAC2 [4]) of 8.09.

In the case of “HSDAVVTDNYTRLRKQVAAKKYLQSIKNKRYGGPSSGAPPPS [Agonist P66]”, the pEC50 (human VPAC1 [1]; [5]) was over 6.00 and the pEC50 (human VPAC2 [4]) was under 6.00.

Work on “H-HSDAVFTDNYTRLRKQVAAKKYLQSI[hArg]NKRYGGPSSGAPPPS [Agonist P22]” yielded a pEC50 (human VPAC1 [1]; [5]) of 9.05, a pIC50 (human VPAC1 [2]) of 6.91 and a pIC50 (human VPAC2 [3]) of 9.06.

With “H[dA]DAVFTDNYTRLRKQVAAKKYLQSIKNKRYGGPSSGAPPPS [VPAC2-P47]” the “Concentration (nM) of Remaining Main Peak by RP-HPLC after Incubation of Peptide with Purified Porcine DPP-IV” value (DPP-IV; Time = 0 hours at 37° C.) was 9.0 nM, the “Concentration (nM) of Remaining Main Peak by RP-HPLC after Incubation of Peptide with Purified Porcine DPP-IV” value (DPP-IV; Time = 2 hours at 37° C.) was 7.9 nM and the “Concentration (nM) of Remaining Main Peak by RP-HPLC after Incubation of Peptide with Purified Porcine DPP-IV” value (DPP-IV; Time = 6 hours at 37° C.) was 6.1 nM. For the same substance, the “Concentration (nM) of Remaining Main Peak by RP-HPLC after Incubation of Peptide with Purified Porcine DPP-IV” value (DPP-IV; Time = 24 hours at 37° C.) was 2.8 nM.

With “H-HTDAVFTDNYTRLRKQVAAKKYLQSIKNKRYGGPSSGAPPPS [Agonist P45]” the pEC50 (human PAC1; [6]) was 6.50 and the pEC50 (human VPAC2 [4]) was 7.93.

“HSDATFTDNYTRLRKQVAAKKYLQSIKNKRYGGPSSGAPPPS [Agonist P62]” showed a pEC50 (human PAC1; [6]) of 6.86 and a pEC50 (human VPAC2 [4]) of 7.88.
